Where two headings read alike, the source gives them in different places.
Tests used:
in vitro = conditions: human, uninfected MT-4 cells
Experimental: Compounds were serially diluted (1:3) in DMSO on 384-well polypropylene plates and further diluted 200-fold into complete RPMI media (10% FBS, 1% P/S) using the Biotek Micro Flow and Labcyte ECHO acoustic dispenser. […] Infected and uninfected MT-4 cells were further diluted in complete RPMI media and added to each plate using a Micro Flow dispenser. After 5 days incubation in a humidified and temperature controlled incubator (37° C.), Cell Titer Glo (Promega) was added to the assay plates and chemiluminescence read using an Envision plate-reader.
Assays were performed as above except uninfected MT-4 cells were added to each well containing test compound. In addition, 10 μM puromycin was added to the last column of each assay plate to assess a base level of cytotoxicity.

HIV-1 (IIIB) = test: microbe, parasite or virus in culture; assay type: cell-based; conditions: Human immunodeficiency virus 1, IIIB, MT4, 120 h, HIV-1 (IIIB) in MT-4 cells, 5 days incubation, Cell Titer Glo; read-out: MT4 EC50
pLAI reporter virus = test: microbe, parasite or virus in culture; assay type: cell-based, HIV; conditions: Human immunodeficiency virus 1, MT4, 72 h

CC1=NO[C@@]2(CC[C@H](C)N3C[C@H]2n2cc(C(=O)NCc4ccc(F)cc4F)c(=O)c(O)c2C3=O)[C@H]1O [Example 28, (3′S,4S,5R,7′R)—N-(2,4-difluorobenzyl)-4,12′-dihydroxy-3,3′-dimethyl-1′,11′-dioxo-1′,4′,5′,11′-tetrahydro-3′H,4H,7′H-spiro[isoxazole-5,6′-[2,7]methanopyrido[1,2-a][1,4]diazonine]-10′-carboxamide]
CC50 at 5 days (in vitro): 47000 nM | EC50 (HIV-1 (IIIB)): 0.9 nM | EC50 (pLAI reporter virus; read-out: RLUC 50% HS EC50): 51.5 nM | EC50 (pLAI reporter virus; read-out: RLUC CCM EC50): 0.4 nM

CC1=NO[C@@]2(CC[C@H](C)N3C[C@H]2n2cc(C(=O)NCc4ccc(F)cc4F)c(=O)c(O)c2C3=O)C1=O [Example 29, (3′S,5R,7′R)—N-(2,4-difluorobenzyl)-12′-hydroxy-3,3′-dimethyl-1′,4,11′-trioxo-1′,4′,5′,11′-tetrahydro-3′H,4H,7′H-spiro[isoxazole-5,6′-[2,7]methanopyrido[1,2-a][1,4]diazonine]-10′-carboxamide]
CC50 at 5 days (in vitro): ≥ 50000 nM | EC50 (HIV-1 (IIIB)): 1.7 nM | EC50 (pLAI reporter virus; read-out: RLUC 50% HS EC50): 168 nM | EC50 (pLAI reporter virus; read-out: RLUC CCM EC50): 0.8 nM

CC1=NO[C@@]2(CC[C@H](C)N3C[C@H]2n2cc(C(=O)NCc4ccc(F)cc4F)c(=O)c(O)c2C3=O)[C@@H]1O [Example 30, (3′S,4R,5R,7′R)—N-(2,4-difluorobenzyl)-4,12′-dihydroxy-3,3′-dimethyl-1′,11′-dioxo-1′,4′,5′,11′-tetrahydro-3′H,4H,7′H-spiro[isoxazole-5,6′-[2,7]methanopyrido[1,2-a][1,4]diazonine]-10′-carboxamide]
CC50 at 5 days (in vitro): 40000 nM | EC50 (HIV-1 (IIIB)): 1.2 nM | EC50 (pLAI reporter virus; read-out: RLUC 50% HS EC50): 79.4 nM | EC50 (pLAI reporter virus; read-out: RLUC CCM EC50): 0.5 nM

CC1=NO[C@@]2(CC[C@H](C)N3C[C@H]2n2cc(C(=O)NCc4c(F)cc(F)cc4F)c(=O)c(O)c2C3=O)[C@H]1O [Example 31, (3′S,4S,5R,7′R)-4,12′-dihydroxy-3,3′-dimethyl-1′,11′-dioxo-N-(2,4,6-trifluorobenzyl)-1′,4′,5′,11′-tetrahydro-3′H,4H,7′H-spiro[isoxazole-5,6′-[2,7]methanopyrido[1,2-a][1,4]diazonine]-10′-carboxamide]
CC50 at 5 days (in vitro): 30000 nM | EC50 (HIV-1 (IIIB)): 1.4 nM | EC50 (pLAI reporter virus; read-out: RLUC 50% HS EC50): 47.2 nM | EC50 (pLAI reporter virus; read-out: RLUC CCM EC50): 0.3 nM

CC1=NO[C@@]2(CC[C@H](C)N3C[C@H]2n2cc(C(=O)NCc4c(F)cc(F)cc4F)c(=O)c(O)c2C3=O)[C@H]1F [Example 32, (3′S,4S,5R,7′R)-4-fluoro-12′-hydroxy-3,3′-dimethyl-1′,11′-dioxo-N-(2,4,6-trifluorobenzyl)-1′,4′,5′,11′-tetrahydro-3′H,4H,7′H-spiro[isoxazole-5,6′-[2,7]methanopyrido[1,2-a][1,4]diazonine]-10′-carboxamide]
CC50 at 5 days (in vitro): 21200 nM | EC50 (HIV-1 (IIIB)): 1.5 nM | EC50 (pLAI reporter virus; read-out: RLUC 50% HS EC50): 261 nM | EC50 (pLAI reporter virus; read-out: RLUC CCM EC50): 0.4 nM

CC1=NO[C@@]2(CC[C@H](C)N3C[C@H]2n2cc(C(=O)NCc4c(F)cc(F)cc4F)c(=O)c(O)c2C3=O)[C@@H]1F [Example 33, (3′S,4R,5R,7′R)-4-fluoro-12′-hydroxy-3,3′-dimethyl-1′,11′-dioxo-N-(2,4,6-trifluorobenzyl)-1′,4′,5′,11′-tetrahydro-3′H,4H,7′H-spiro[isoxazole-5,6′-[2,7]methanopyrido[1,2-a][1,4]diazonine]-10′-carboxamide]
CC50 at 5 days (in vitro): 14100 nM | EC50 (HIV-1 (IIIB)): 0.7 nM | EC50 (pLAI reporter virus; read-out: RLUC 50% HS EC50): 342 nM | EC50 (pLAI reporter virus; read-out: RLUC CCM EC50): 0.4 nM

CC1=NO[C@@]2(CC[C@H](C)N3C[C@H]2n2cc(C(=O)NCc4ccc(F)c(Cl)c4F)c(=O)c(O)c2C3=O)[C@H]1C [Example 34, (3′S,4S,5S,7′R)—N-(3-chloro-2,4-difluorobenzyl)-12′-hydroxy-3,3′,4-trimethyl-1′,11′-dioxo-1′,4′,5′,11′-tetrahydro-3′H,4H,7′H-spiro[isoxazole-5,6′-[2,7]methanopyrido[1,2-a][1,4]diazonine]-10′-carboxamide]
CC50 at 5 days (in vitro): 13600 nM | EC50 (HIV-1 (IIIB)): 0.6 nM | EC50 (pLAI reporter virus; read-out: RLUC 50% HS EC50): 76.7 nM | EC50 (pLAI reporter virus; read-out: RLUC CCM EC50): 0.2 nM

CC1=NO[C@@]2(CC[C@H](C)N3C[C@H]2n2cc(C(=O)NCc4ccc(F)c(Cl)c4F)c(=O)c(O)c2C3=O)[C@H]1O [Example 35, (3′S,4S,5R,7′R)—N-(3-chloro-2,4-difluorobenzyl)-4,12′-dihydroxy-3,3′-dimethyl-1′,11′-dioxo-1′,4′,5′,11′-tetrahydro-3′H,4H,7′H-spiro[isoxazole-5,6′-[2,7]methanopyrido[1,2-a][1,4]diazonine]-10′-carboxamide]
CC50 at 5 days (in vitro): 20300 nM | EC50 (HIV-1 (IIIB)): 0.9 nM | EC50 (pLAI reporter virus; read-out: RLUC 50% HS EC50): 102 nM | EC50 (pLAI reporter virus; read-out: RLUC CCM EC50): 0.3 nM

COC1=NO[C@@]2(CC[C@H](C)N3C[C@H]2n2cc(C(=O)NCc4c(F)cc(F)cc4F)c(=O)c(O)c2C3=O)C1 [Example 36, (3′S,5S,7′R)-12′-hydroxy-3-methoxy-3′-methyl-1′,11′-dioxo-N-(2,4,6-trifluorobenzyl)-1′,4′,5′,11′-tetrahydro-3′H,4H,7′H-spiro[isoxazole-5,6′-[2,7]methanopyrido[1,2-a][1,4]diazonine]-10′-carboxamide]
CC50 at 5 days (in vitro): 19500 nM | EC50 (HIV-1 (IIIB)): 0.7 nM | EC50 (pLAI reporter virus; read-out: RLUC 50% HS EC50): 27.6 nM | EC50 (pLAI reporter virus; read-out: RLUC CCM EC50): 0.2 nM

COC1=NO[C@]2(CC[C@H](C)N3C[C@H]2n2cc(C(=O)NCc4c(F)cc(F)cc4F)c(=O)c(O)c2C3=O)C1 [Example 37, (3′S,5R,7′R)-12′-hydroxy-3-methoxy-3′-methyl-1′,11′-dioxo-N-(2,4,6-trifluorobenzyl)-1′,4′,5′,11′-tetrahydro-3′H,4H,7′H-spiro[isoxazole-5,6′-[2,7]methanopyrido[1,2-a][1,4]diazonine]-10′-carboxamide]
CC50 at 5 days (in vitro): 49900 nM | EC50 (HIV-1 (IIIB)): 1.6 nM | EC50 (pLAI reporter virus; read-out: RLUC 50% HS EC50): 8.3 nM | EC50 (pLAI reporter virus; read-out: RLUC CCM EC50): 0.7 nM

COCCOC1=NO[C@@]2(CC[C@H](C)N3C[C@H]2n2cc(C(=O)NCc4c(F)cc(F)cc4F)c(=O)c(O)c2C3=O)C1 [Example 38, (3′S,5S,7′R)-12′-hydroxy-3-(2-methoxyethoxy)-3′-methyl-1′,11′-dioxo-N-(2,4,6-trifluorobenzyl)-1′,4′,5′,11′-tetrahydro-3′H,4H,7′H-spiro[isoxazole-5,6′-[2,7]methanopyrido[1,2-a][1,4]diazonine]-10′-carboxamide]
CC50 at 5 days (in vitro): 22100 nM | EC50 (HIV-1 (IIIB)): 1.2 nM | EC50 (pLAI reporter virus; read-out: RLUC 50% HS EC50): 1.5 nM | EC50 (pLAI reporter virus; read-out: RLUC CCM EC50): 0.3 nM

[2H]C([2H])([2H])OC1=NO[C@@]2(CC[C@H](C)N3C[C@H]2n2cc(C(=O)NCc4c(F)cc(F)cc4F)c(=O)c(O)c2C3=O)C1([2H])[2H] [Example 39, (3′S,5S,7′R)-12′-hydroxy-3-(methoxy-d3)-3′-methyl-1′,11′-dioxo-N-(2,4,6-trifluorobenzyl)-1′,4′,5′,11′-tetrahydro-3′H,4H,7′H-spiro[isoxazole-5,6′-[2,7]methanopyrido[1,2-a][1,4]diazonine]-4,4-d2-10′-carboxamide]
CC50 at 5 days (in vitro): 23500 nM | EC50 (HIV-1 (IIIB)): 1 nM | EC50 (pLAI reporter virus; read-out: RLUC 50% HS EC50): 35.4 nM | EC50 (pLAI reporter virus; read-out: RLUC CCM EC50): 0.3 nM

COCCOC1=NO[C@@]2(CC[C@H](C)N3C[C@H]2n2cc(C(=O)NCc4ccc(F)cc4F)c(=O)c(O)c2C3=O)C1 [Example 41, (3′S,5S,7′R)—N-(2,4-difluorobenzyl)-12′-hydroxy-3-(2-methoxyethoxy)-3′-methyl-1′,11′-dioxo-1′,4′,5′,11′-tetrahydro-3′H,4H,7′H-spiro[isoxazole-5,6′-[2,7]methanopyrido[1,2-a][1,4]diazonine]-10′-carboxamide]
CC50 at 5 days (in vitro): 21500 nM | EC50 (HIV-1 (IIIB)): 0.6 nM | EC50 (pLAI reporter virus; read-out: RLUC 50% HS EC50): 0.5 nM | EC50 (pLAI reporter virus; read-out: RLUC CCM EC50): 0.4 nM

C[C@H]1CC[C@]2(CC(C#N)=NO2)[C@H]2CN1C(=O)c1c(O)c(=O)c(C(=O)NCc3ccc(F)cc3F)cn12 [Example 42, (3′S,5S,7′R)-3-cyano-N-(2,4-difluorobenzyl)-12′-hydroxy-3′-methyl-1′,11′-dioxo-1′,4′,5′,11′-tetrahydro-3′H,4H,7′H-spiro[isoxazole-5,6′-[2,7]methanopyrido[1,2-a][1,4]diazonine]-10′-carboxamide]
CC50 at 5 days (in vitro): ≥ 50000 nM | EC50 (HIV-1 (IIIB)): ≥ 100 nM | EC50 (pLAI reporter virus; read-out: RLUC 50% HS EC50): 550 nM | EC50 (pLAI reporter virus; read-out: RLUC CCM EC50): 157 nM

CSC1=NO[C@@]2(CC[C@H](C)N3C[C@H]2n2cc(C(=O)NCc4c(F)cc(F)cc4F)c(=O)c(O)c2C3=O)C1 [Example 43, (3′S,5S,7′R)-12′-hydroxy-3′-methyl-3-(methylthio)-1′,11′-dioxo-N-(2,4,6-trifluorobenzyl)-1′,4′,5′,11′-tetrahydro-3′H,4H,7′H-spiro[isoxazole-5,6′-[2,7]methanopyrido[1,2-a][1,4]diazonine]-10′-carboxamide]
CC50 at 5 days (in vitro): 33400 nM | EC50 (HIV-1 (IIIB)): 6.1 nM | EC50 (pLAI reporter virus; read-out: RLUC 50% HS EC50): 279 nM | EC50 (pLAI reporter virus; read-out: RLUC CCM EC50): 1.5 nM

C[C@H]1CC[C@]2(CC(Br)=NO2)[C@H]2CN1C(=O)c1c(O)c(=O)c(C(=O)NCc3ccc(F)cc3F)cn12 [Example 44, (3′S,5S,7′R)-3-bromo-N-(2,4-difluorobenzyl)-12′-hydroxy-3′-methyl-1′,11′-dioxo-1′,4′,5′,11′-tetrahydro-3′H,4H,7′H-spiro[isoxazole-5,6′-[2,7]methanopyrido[1,2-a][1,4]diazonine]-10′-carboxamide]
CC50 at 5 days (in vitro): 24400 nM | EC50 (HIV-1 (IIIB)): 0.7 nM | EC50 (pLAI reporter virus; read-out: RLUC 50% HS EC50): 160 nM | EC50 (pLAI reporter virus; read-out: RLUC CCM EC50): 0.1 nM

C[C@H]1CC[C@]2(CC(OC3COC3)=NO2)[C@H]2CN1C(=O)c1c(O)c(=O)c(C(=O)NCc3ccc(F)cc3F)cn12 [Example 45, (3′S,5S,7′R)—N-(2,4-difluorobenzyl)-12′-hydroxy-3′-methyl-3-(oxetan-3-yloxy)-1′,11′-dioxo-1′,4′,5′,11′-tetrahydro-3′H,4H,7′H-spiro[isoxazole-5,6′-[2,7]methanopyrido[1,2-a][1,4]diazonine]-10′-carboxamide]
CC50 at 5 days (in vitro): ≥ 50000 nM | EC50 (HIV-1 (IIIB)): 2 nM | EC50 (pLAI reporter virus; read-out: RLUC 50% HS EC50): 1.8 nM | EC50 (pLAI reporter virus; read-out: RLUC CCM EC50): 0.4 nM

From patent US20250115620A1, “BRIDGED TRICYCLIC CARBAMOYLPYRIDONE COMPOUNDS AND USES THEREOF” (Gilead Sciences, Inc., priority 2022, published 2025)
